Laboratory results from patent publication US20260069571A1, “DDR1 AND DDR2 INHIBITORS FOR THE TREATEMENT OF CANCER AND FIBROTIC DISEASES” (REDX PHARMA PLC, priority 2021, published 2026).

How the values were obtained:
Recombinant human DDR2 = Recombinant human DDR2 (Homo sapiens (Human), UniProt Q16832); assay: LanthaScreen Eu Kinase Binding Assay, DDR2; settings: DDR2 1.75 nM (aa427-855, GST tag), Kinase Tracer 178 10 nM; for IC50: read-out: DDR2 pIC50 (converted)
Protocol: (§1) DDR1 and DDR2 Biochemical Assay Method
(§2) The capacity of compounds to bind to DDR1 and DDR2 was quantified using a LanthaScreen Eu Kinase Binding Assay. Recombinant human DDR1 (2.5 nM; aa440-876 containing a GST tag) and DDR2 (1.75 nM; aa427-855 containing a GST tag) were diluted in assay buffer (50 mM HEPES pH7.3, 10 mM MgCl2, 1 mM EGTA and 0.01% Tween) with various concentrations of compound in a 384-well plate and a volume of 5 uL. After a 30-minute incubation at room temperature, 2.5 uL of Eu-anti GST antibody (diluted to 1 nM in assay buffer) plus Kinase Tracer 178 (diluted in assay buffer to 5 nM for DDR1 and 10 nM for DDR2) were added to the plate. Following 60-minute incubation at room temperature, time-resolved fluorescence was measured on a BMG Labtech PHERAstar plate reader. DMSO (1%) and reference compound (1 μM) were used to generate the Max and Min assay signals, respectively. Data was analysed using a four-parameter logistic model to calculate IC50 values, with at least two independent replicates were performed for each compound.

Recombinant human DDR1 = Recombinant human DDR1 (Homo sapiens (Human), UniProt Q08345); assay: LanthaScreen Eu Kinase Binding Assay, DDR1; settings: DDR1 2.5 nM (aa440-876, GST tag), Kinase Tracer 178 5 nM; for IC50: read-out: DDR1 pIC50 (converted)
Protocol: as §1, §2

Recombinant human DDR2, sequence (Q16832 427-855): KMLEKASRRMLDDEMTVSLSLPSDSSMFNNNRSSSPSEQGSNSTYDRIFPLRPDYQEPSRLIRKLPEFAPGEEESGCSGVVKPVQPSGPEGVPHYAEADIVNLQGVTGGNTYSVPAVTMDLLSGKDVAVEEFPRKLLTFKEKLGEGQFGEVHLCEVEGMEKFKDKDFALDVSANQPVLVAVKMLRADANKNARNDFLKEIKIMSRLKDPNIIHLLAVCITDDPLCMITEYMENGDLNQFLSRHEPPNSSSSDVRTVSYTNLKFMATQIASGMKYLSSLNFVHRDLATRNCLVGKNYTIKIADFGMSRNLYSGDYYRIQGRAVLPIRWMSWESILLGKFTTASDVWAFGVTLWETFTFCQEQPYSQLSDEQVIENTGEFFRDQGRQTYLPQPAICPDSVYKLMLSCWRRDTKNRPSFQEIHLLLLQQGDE
Recombinant human DDR1, sequence (Q08345 other isoform, or with tags, fused parts or gaps): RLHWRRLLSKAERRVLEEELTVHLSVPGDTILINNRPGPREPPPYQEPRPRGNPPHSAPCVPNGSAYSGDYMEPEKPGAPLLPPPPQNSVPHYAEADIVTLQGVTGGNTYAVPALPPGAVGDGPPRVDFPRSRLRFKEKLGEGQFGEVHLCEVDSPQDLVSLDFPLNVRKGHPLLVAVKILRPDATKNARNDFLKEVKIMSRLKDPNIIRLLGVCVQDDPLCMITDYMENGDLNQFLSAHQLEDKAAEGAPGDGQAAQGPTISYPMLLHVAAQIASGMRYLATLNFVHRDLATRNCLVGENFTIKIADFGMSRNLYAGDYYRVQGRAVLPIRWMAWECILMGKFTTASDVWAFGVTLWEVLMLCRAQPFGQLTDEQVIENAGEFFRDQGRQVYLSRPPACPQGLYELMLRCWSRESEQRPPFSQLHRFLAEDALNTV

## C[C@H](NC(=O)CN1Cc2cccc(Nc3cnc4[nH]ncc4c3)c2C1=O)C(F)(F)F [Example 73, 2-[1-oxo-7-(1H-pyrazolo[3,4-b]pyridin-5-ylamino)isoindolin-2-yl]-N-[(1S)-2,2,2-trifluoro-1-methyl-ethyl]acetamide]
Recombinant human DDR2
  IC50: 10 to 100 nM
Recombinant human DDR1
  IC50: < 10 nM

## Cn1ncc2cc(Nc3cccc4c3C(=O)N(CC(=O)N3CCOC[C@@H]3C(F)(F)F)C4)cnc21 [Example 57, 7-[(1-methylpyrazolo[3,4-b]pyridin-5-yl)amino]-2-[2-oxo-2-[(3R)-(trifluoromethyl)morpholin-4-yl]ethyl]isoindolin-1-one]
Recombinant human DDR2
  IC50: ≥ 1000 nM
Recombinant human DDR1
  IC50: ≥ 1000 nM

## Cn1ncc2cc(Nc3cccc4c3C(=O)N(CC(=O)NCC(F)(F)F)C4)ccc21 [Example 1, 2-[7-[(1-Methylindazol-5-yl)amino]-1-oxo-isoindolin-2-yl]-N-(2,2,2-trifluoroethyl) acetamide]
Recombinant human DDR2
  IC50: 10 to 100 nM
Recombinant human DDR1
  IC50: < 10 nM

## Cn1ncc2cc(Nc3cccc4c3C(=O)N(CC(=O)NCC(F)(F)F)C4(C)C)ccc21 [Example 7, 2-[1,1-dimethyl-4-[(1-methylindazol-5-yl)amino]-3-oxo-isoindolin-2-yl]-N-(2,2,2-trifluoroethyl)acetamide]
Recombinant human DDR2
  DDR2 pIC50: D (pIC50≤6)
Recombinant human DDR1
  IC50: 100 to 1000 nM

## Cn1ncc2cc(Nc3cccc4c3C(=O)N(CC(=O)N3CCOC[C@H]3C(F)(F)F)C4)ccc21 [Example 44, 7-[(1-methylindazol-5-yl)amino]-2-[2-oxo-2-[(3S)-(trifluoromethyl)morpholin-4-yl]ethyl]isoindolin-1-one]
Recombinant human DDR2
  IC50: 100 to 1000 nM
Recombinant human DDR1
  IC50: 10 to 100 nM

## Cn1ncc2cc(Nc3cccc4c3C(=O)N(CC(=O)NCC(F)(F)F)C4)cc(F)c21 [Example 93, 2-[7-[(7-fluoro-1-methyl-indazol-5-yl)amino]-1-oxo-isoindolin-2-yl]-N-(2,2,2-trifluoroethyl)acetamide]
Recombinant human DDR2
  IC50: 10 to 100 nM
Recombinant human DDR1
  DDR1 pIC50: A (pIC50>8)

## Cn1ncc2cc(Nc3cccc4c3C(=O)N(CC(=O)N3CCC[C@H]3CF)C4)cnc21 [Example 56, 7-[(1-methylpyrazolo[3,4-b]pyridin-5-yl)amino]-2-[2-oxo-2-[(2S)-(fluoromethyl)pyrrolidin-1-yl]ethyl]isoindolin-1-one]
Recombinant human DDR2
  IC50: 10 to 100 nM
Recombinant human DDR1
  IC50: 10 to 100 nM

## Cn1ncc2cc(Nc3cccc4c3C(=O)N(CC(=O)Nc3cncc(C(F)(F)F)c3)C4)cnc21 [Example 99, 2-[7-[(1-methylpyrazolo[3,4-b]pyridin-5-yl)amino]-1-oxo-isoindolin-2-yl]-N-[5-(trifluoromethyl)-3-pyridyl]acetamide]
Recombinant human DDR2
  IC50: 10 to 100 nM
Recombinant human DDR1
  IC50: 10 to 100 nM

## Cc1n[nH]c2cc(Nc3cccc4c3C(=O)N(CC(=O)Nc3ccc(CN(C)C)c(C(F)(F)F)c3)C4)ccc12 [Example 37, N-[4-[(dimethylamino)methyl]-3-(trifluoromethyl)phenyl]-2-[7-[(3-methyl-1H-indazol-6-yl)amino]-1-oxo-isoindolin-2-yl]acetamide]
Recombinant human DDR2
  IC50: 10 to 100 nM
Recombinant human DDR1
  DDR1 pIC50: A (pIC50>8)

## Cc1n[nH]c2cc(Nc3cccc4c3C(=O)N(CC(=O)NCC(F)(F)F)C4)cc(Cl)c12 [Example 91, 2-[7-[(4-chloro-3-methyl-1H-indazol-6-yl)amino]-1-oxo-isoindolin-2-yl]-N-(2,2,2-trifluoroethyl)acetamide]
Recombinant human DDR1
  IC50: 10 to 100 nM

## Cc1n[nH]c2cc(Nc3cccc4c3C(=O)N(CC(=O)N3CC(C(F)(F)F)C3)C4)ccc12 [Example 34, 7-[(3-methyl-1H-indazol-6-yl)amino]-2-[2-oxo-2-[3-(trifluoromethyl)azetidin-1-yl]ethyl]isoindolin-1-one]
Recombinant human DDR2
  IC50: 10 to 100 nM
Recombinant human DDR1
  IC50: 10 to 100 nM

## Cn1ncc2cc(Nc3cccc4c3C(=O)N(CC(=O)Nc3cccc(C(C)(C)N)c3)C4)ccc21 [Example 23, N-[3-(1-amino-1-methyl-ethyl)phenyl]-2-[7-[(1-methylindazol-5-yl)amino]-1-oxo-isoindolin-2-yl]acetamide]
Recombinant human DDR2
  IC50: 10 to 100 nM
Recombinant human DDR1
  IC50: 10 to 100 nM

## Cn1ncc2cc(Nc3cccc4c3C(=O)N(CC(=O)N3CCC[C@H]3C(F)(F)F)C4)cnc21 [Example 51, 7-[(1-methylpyrazolo[3,4-b]pyridin-5-yl)amino]-2-[2-oxo-2-[(2S)-2-(trifluoromethyl)pyrrolidin-1-yl]ethyl]isoindolin-1-one]
Recombinant human DDR2
  DDR2 pIC50: A (pIC50>8)
Recombinant human DDR1
  DDR1 pIC50: A (pIC50>8)

## Cc1n[nH]c2cc(Nc3cccc4c3C(=O)N(CC(=O)N3CCC[C@H]3C(F)(F)F)C4)ccc12 [Example 29, 7-[(3-methyl-1H-indazol-6-yl)amino]-2-[2-oxo-2-[(2S)-(trifluoromethyl)77yrrolidine-1-yl]ethyl]isoindolin-1-one]
Recombinant human DDR2
  IC50: < 10 nM
Recombinant human DDR1
  IC50: < 10 nM

## Cc1n[nH]c2cc(Nc3cccc4c3C(=O)N(CC(=O)NC3CC3(F)F)C4)ccc12 (centres unmarked) [Example 36, N-(2,2-difluorocyclopropyl)-2-[7-[(3-methyl-1H-indazol-6-yl)amino]-1-oxo-isoindolin-2-yl]acetamide]
Recombinant human DDR2
  DDR2 pIC50: A (pIC50>8)
Recombinant human DDR1
  DDR1 pIC50: A (pIC50>8)

## Cc1n[nH]c2cc(N(C)c3cccc4c3C(=O)N(CC(=O)NCC(F)(F)F)C4)ccc12 [Example 78, 2-[7-[methyl-(3-methyl-1H-indazol-6-yl)amino]-1-oxo-isoindolin-2-yl]-N-(2,2,2-trifluoroethyl)acetamide]
Recombinant human DDR2
  IC50: 100 to 1000 nM
Recombinant human DDR1
  IC50: 10 to 100 nM

## Cn1ncc2cc(Nc3cccc4c3C(=O)N(CC(=O)Nc3cccc(C(C)(C)O)c3)C4)ccc21 [Example 10, N-[3-(1-hydroxy-1-methyl-ethyl)phenyl]-2-[7-[(1-methylindazol-5-yl)amino]-1-oxo-isoindolin-2-yl]acetamide]
Recombinant human DDR2
  IC50: 10 to 100 nM
Recombinant human DDR1
  DDR1 pIC50: A (pIC50>8)

## Cc1n[nH]c2cc(Nc3cccc4c3C(=O)N(CC(=O)Nc3cc(CN(C)C)cc(C(F)(F)F)c3)C4)ccc12 [Example 39, N-[3-[(dimethylamino)methyl]-5-(trifluoromethyl)phenyl]-2-[7-[(3-methyl-1H-indazol-6-yl)amino]-1-oxo-isoindolin-2-yl]acetamide]
Recombinant human DDR2
  IC50: 10 to 100 nM
Recombinant human DDR1
  DDR1 pIC50: A (pIC50>8)

## Cn1ncc2cc(Nc3cccc4c3C(=O)N(CC(=O)N3CCC3C(F)(F)F)C4)ccc21 (centres unmarked) [Example 50, 7-[(1-methylindazol-5-yl)amino]-2-[2-oxo-2-[2-(trifluoromethyl)azetidin-1-yl]ethyl]isoindolin-1-one]
Recombinant human DDR2
  DDR2 pIC50: A (pIC50>8)
Recombinant human DDR1
  DDR1 pIC50: A (pIC50>8)

## Cc1n[nH]c2cc(Nc3cccc4c3C(=O)N(CC(=O)Nc3cnoc3)C4)cc(F)c12 [Example 65, 2-[7-[(4-fluoro-3-methyl-1H-indazol-6-yl)amino]-1-oxo-isoindolin-2-yl]-N-isoxazol-4-yl-acetamide]
Recombinant human DDR2
  DDR2 pIC50: D (pIC50≤6)
Recombinant human DDR1
  IC50: 100 to 1000 nM

## Cn1ncc2cc(Nc3cccc4c3C(=O)N(CC(=O)N3CCOCC3C(F)(F)F)C4)ccc21 (centres unmarked) [Example 31, 7-[(1-methylindazol-5-yl)amino]-2-[2-oxo-2-[3-(trifluoromethyl)morpholin-4-yl]ethyl]isoindolin-1-one]
Recombinant human DDR2
  IC50: 10 to 100 nM
Recombinant human DDR1
  DDR1 pIC50: A (pIC50>8)

## C[C@H](NC(=O)CN1Cc2cccc(Nc3ccc4c(cnn4C)c3)c2C1=O)C(F)(F)F [Example 2, 2-[7-[(1-Methylindazol-5-yl)amino]-1-oxo-isoindolin-2-yl]-N-[(1S)-2,2,2-trifluoro-1-methyl-ethyl]acetamide]
Recombinant human DDR2
  DDR2 pIC50: A (pIC50>8)
Recombinant human DDR1
  DDR1 pIC50: A (pIC50>8)

## Cn1ncc2cc(Nc3cccc4c3C(=O)N(CC(=O)N3CCCC(C(F)(F)F)C3)C4)ccc21 (centres unmarked) [Example 12]
Recombinant human DDR2
  IC50: 10 to 100 nM
